The source of these data is article PMC8879803, “Identification of a Common Pharmacophore for Binding to MMP2 and RGD Integrin: Towards a Multitarget Approach to Inhibit Cancer Angiogenesis and Metastasis” (Molecules, 2022).

One assay deals with T1, MMP2 (Homo sapiens, UniProt P08253).
T1 sequence (P08253 110-660): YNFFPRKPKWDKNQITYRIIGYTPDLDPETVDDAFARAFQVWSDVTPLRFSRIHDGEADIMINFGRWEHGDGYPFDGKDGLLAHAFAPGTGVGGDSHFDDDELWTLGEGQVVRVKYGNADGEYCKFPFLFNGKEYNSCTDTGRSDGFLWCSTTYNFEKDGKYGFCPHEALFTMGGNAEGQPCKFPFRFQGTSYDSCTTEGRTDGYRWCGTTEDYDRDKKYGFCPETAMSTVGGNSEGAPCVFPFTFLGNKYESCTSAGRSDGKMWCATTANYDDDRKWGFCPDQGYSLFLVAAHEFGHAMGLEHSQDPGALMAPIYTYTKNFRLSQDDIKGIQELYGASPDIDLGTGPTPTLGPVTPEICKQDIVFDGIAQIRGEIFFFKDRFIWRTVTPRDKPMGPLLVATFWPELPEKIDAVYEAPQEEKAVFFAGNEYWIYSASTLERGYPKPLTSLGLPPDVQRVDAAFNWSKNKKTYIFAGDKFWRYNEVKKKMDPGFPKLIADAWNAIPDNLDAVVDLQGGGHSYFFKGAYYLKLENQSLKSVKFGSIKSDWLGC
Kind of assay: Fluorometric enzyme inhibition assay with fluorogenic substrate Mca-Lys-Pro-Leu-Gly-Leu-Dpa-Ala-Arg-NH2 (MMP2). Format: biochemical. To be noted: enzyme 1 nM. On the procedure:
(§1) For all the compounds showing >50% inhibition activity the IC50 values were obtained by dose-response measurements using an inhibitor range of concentrations (0.01 nM–20 μM) and enzyme concentration equal to 1 nM.
(§2) The inhibition potency of hydroxamic acid derivatives against MMP2 and MMP9 was assayed through a fluorometric assay using the fluorogenic substrate Mca-Lys-Pro-Leu-Gly-Leu-Dpa-Ala-Arg-NH2 (Enzo life science). All the measurements were performed in 96-well plates with a Fluostar Optima microplate reader (BMG Labtech, Ortenberg, Germany). Excitation and emission wavelengths were 320 and 420 nm, respectively. All incubations were performed at 28 °C in 50 mM TrisHCl, 150 mM NaCl, 10 mM CaCl2, 0.05% Brij 35, 1% DMSO at pH 7.5. The inhibitors were pre-incubated with enzymes (1 nM) for 5 min at room temperature before the reaction was started by the addition of the fluorogenic substrate (3 µM). The […] of fluorescence was monitored over 30 min (λex = 320 nm, λem = 420 nm) at 28 °C. The percentages of inhibition for the test compounds were determined through the equation (1 − Vs/Vo) × 100, where vs. is the initial velocity in the presence of the inhibitor and V0 is the initial velocity of the uninhibited reaction. The IC50 values were obtained by dose-response measurements using inhibitor range of concentrations 0.00001–20 μM and enzyme concentration equal to 1 nM. A detergent-based assay was used to determine the presence of promiscuous inhibitors. All the experiments were performed in triplicates and data collected were analyzed using Graphpad 5.0 Software Package (GraphPad Prism Inc., San Diego, CA, USA).

Assay [1] deals with T2, purified human integrin proteins αvβ3 (Homo sapiens, UniProt P05106+P06756).
T2 construct: purchased Sino Biological Europe GmbH, Eschborn, Germany
Kind of assay: Solid-phase integrin binding assay (competition with biotinylated vitronectin). To be noted: read-out: Inhibition % of biotinylated vitronectin specific binding to αvβ3. On the procedure:
As regarding to the binding affinity towards αvβ3, the library was screened using an in vitro solid-phase assays were performed at 10, 1.0 and 0.1 μM concentration of the test compounds for their ability to compete with biotinylated vitronectin for binding to pure αvβ3 integrin isolated from human placenta, and % binding activity is reported in Table 2.
Purified αvβ3 receptors (Sino Biological Europe GmbH, Eschborn, Germany) were diluted to 0.5 μg/mL in coating buffer containing Tris-HCl (20 mmol/L; pH 7.4), NaCl (150 mmol/L), MnCl2 (1 mmol/L), CaCl2 (2 mmol/L) and MgCl2 (1 mmol/L). An aliquot of diluted receptors (100 μL per well) was added to 96-well microtiter plates (MW 96F Medisorp Straight Nunc, Thermo Fischer Scientific, Waltham, MA, USA) and incubated, overnight, at 4 °C. The plates were then incubated with blocking solution (coating buffer plus 5% bovine serum albumin) for an additional 2 h at room temperature to block nonspecific binding followed by 3 h incubation at room temperature with various concentrations of test compounds in the presence of vitronectine (1 μg/mL, Sigma Aldrich, Merck KGaA, Darmstadt, Germany) biotinylated by using EZ-Link Sulfo-NHS-Biotinylation kit (Thermo Fisher, Waltham, MA, USA). After washing, the plates were incubated for 1 h at room temperature with streptavidin–biotinylated peroxidase complex (GE Healthcare, Chicago, IL, USA), followed by 30 min incubation with substrate reagent solution (100 μL; R&D Systems) before stopping the reaction by addition of H2SO4 (2 N, 50 μL). Absorbance at 415 nm was read with a BMG Labtech Fluostar Optima microplate reader. All the experiments were performed in triplicates and data collected were analyzed using the GraphPad 5.0 Software Package.

A further assay has as its target MMP9 (Homo sapiens, UniProt P14780). Kind of assay: Fluorometric enzyme inhibition assay with fluorogenic substrate Mca-Lys-Pro-Leu-Gly-Leu-Dpa-Ala-Arg-NH2 (MMP9). As to conditions: enzyme 1 nM. Format: biochemical. On the procedure: as §1, §2
The subject of a further assay is M21 human melanoma cells. Kind of assay: Inhibition of integrin-mediated M21 cell adhesion to vitronectin. As to conditions: Homo sapiens, M21, 2 mM MnCl2, relative to vehicle (PBS). In kind it is cell-based. On the procedure:
All the compounds but 17 were also tested for their integrin binding affinity towards M21 human melanoma cells that expresses high levels of αvβ3 heterodimer and using cilengitide as a control. Tests were performed in the presence of 2 mM MnCl2 to switch integrins of tumour cells into an activated form, and at final concentration of the compounds ranging from 30 μM to 0.3 μM (Table 3). […] We were pleased to find that compound 19 maintained a good inhibition potency at 0.3 μM as the lowest concentration used, thus confirming the capacity of this compound to inhibit the binding of M21 melanoma cells to vitronectin as an RGD-containing substrate.
The expression levels of αVβ3 integrin receptors on M21 melanoma cell lines were reported previously. Next, 96 wells plates were coated overnight, at 4 °C, with vitronectin (5 μg/mL in PBS) (V8379 Sigma). Plates were, then washed with phosphate buffered saline (PBS) solution and incubated at 37 °C for 1 h with PBS containing 1% bovine serum albumin (BSA). M21 cells were centrifugated (RT, at 700× g) in PBS, to remove serum. Cells were counted and suspended in serum-free medium at 5.0 × 10^5 cells/mL. Melanoma cell suspensions were pre-incubated with different amounts of the compounds. The final concentration ranged from 30 uM to 0.3 uM, using cilengitide as a control. The incubation was performed at 37 °C for 30 min to allow the ligand-receptor equilibrium to be reached. Next, cells were plated on VN substrata (5–6 × 10^4 cells/well) and incubated at 37 °C for 1 h. The assays were conducted in the presence of 2 mmol/L MnCl2 [26]. At the end of the incubation, plates were washed with PBS to remove the non-adherent cells, and 200 μL of 0.5% crystal violet solution in 20% methanol were added. After 2 h of static incubation at 4 °C, plates were examined at 540 nm in a counter ELX800 (Bio TEK Instruments, Winooski, VT, USA). Experiments were done in triplicate and repeated at least three times. The values are expressed as % inhibition of cell adhesion relative to cells exposed to vehicle alone (PBS).

Setting [2] is: 10 μM compound, mean of three assays.
Where [3] appears, read: 50 μM compound, mean of three assays.

Consider `O=C(NO)[C@H](Cc1ccc(O)cc1)NS(=O)(=O)c1ccc(-c2ccccc2)cc1` [Compound 21, (S)-2-([1,1′-Biphenyl]-4-ylsulfonamido)-N-hydroxy-3-(4-hydroxyphenyl)propanamide], for which the inhibition at 10 µM came to 97% against MMP2 (setting [2]), 2% in assay [1] (at 10 μM) and 63% against MMP9 (setting [2]). Moreover, the inhibition at 50 µM against MMP2 (setting [3]) turned out to be 100%; against MMP9 (setting [3]), 73%. Further, the IC50 was 37 nM against MMP2 (dose-response) and 361 nM against MMP9 (dose-response). For the same molecule, the inhibition at 0.1 µM in assay [1] (at 0.1 μM) turned out to be 20%. Also, the inhibition at 1 µM in assay [1] (at 1 μM) was 12%. Moreover, in the assay on M21 human melanoma cells (at 0.3 μM), the inhibition at 0.3 µM turned out to be 29.7%. In the assay on M21 human melanoma cells (at 3 μM), this molecule showed an inhibition at 3 µM of 28.8%. Besides, 30 µM produced 17.4% inhibition in the assay on M21 human melanoma cells (at 30 μM).

In general, inhibition refers to the share of the control response that was lost under treatment. As a reminder, the IC50 is the concentration that inhibits the measured activity by half. Low values mean greater potency in that assay, high ones weaker potency in that assay.
